For 59 compounds, pest or weed control, chromatographic logP and LogP results are on record in patent publication US10485236B2, “Triazole derivatives, intermediates thereof and their use as fungicides” (Bayer CropScience Aktiengesellschaft, priority 2015, dated 2019).

Data set [1] concerns Puccinia recondita. The data set is described as follows: Example B: in vivo preventive test on Puccinia recondita (brown rust on wheat). The following applies: 264 h, 500 ppm of active ingredient, wheat plants, preventive spray, evaluated 11 days after inoculation, read-out: efficacy. As for the experimental part:
(§1) Example B: In Vivo Preventive Test on Puccinia recondita (Brown Rust on Wheat) [table] The active ingredients are made soluble and homogenized in a mixture of Dimethyl sulfoxide/Acetone//Tween® 80 and then diluted in water to the desired concentration. The young plants of wheat are treated by spraying the active ingredient prepared as described above. Control plants are treated only with an aqueous solution of Acetone/Dimethyl sulfoxide/Tween® 80. After 24 hours, the plants are contaminated by spraying the leaves with an aqueous suspension of Puccinia recondita spores. The contaminated wheat plants are incubated for 24 hours at 20° C. and at 100% relative humidity and then for 10 days at 20° C. and at 70-80% relative humidity. The test is evaluated 11 days after the inoculation. 0% means an efficacy which corresponds to that of the control plants while an efficacy of 100% means that no disease is observed.

In data set [2] the test system is Uromyces appendiculatus. The data set is described as follows: Example E: in vivo preventive test on Uromyces appendiculatus (bean rust). The following applies: 264 h, 500 ppm of active ingredient, bean plants, preventive spray, evaluated 11 days after inoculation, read-out: efficacy. The procedure: as §1, with “E:” for “B:”, “Uromyces appendiculatus (Bean Rust)” for “Puccinia recondita (Brown Rust on Wheat)”, “bean” for “wheat”, “Uromyces appendiculatus” for “Puccinia recondita”

A short description of data set [3]: Measurement of LogP values by HPLC on reversed phase columns (EEC directive 79/831 Annex V.A8). Format: physicochemical. The following applies: for chromatographic logP: reversed phase HPLC column. The procedure: [table] If more than one Log P value is available within the same method, all the values are given and separated by “+”. Calibration was done with straight-chain alkan2-ones (with 3 to 16 carbon atoms) with known Log P values (measurement of Log P values using retention times with linear interpolation between successive alkanones). Lambda-max-values were determined using UV-spectra from 200 nm to 400 nm and the peak values of the chromatographic signals.

The subject of data set [4] is Sphaerotheca fuliginea. The data set is described as follows: Example D: in vivo preventive test on Sphaerotheca fuliginea (powdery mildew on cucurbits). The following applies: Podosphaera fuliginea, 360 h; 500 ppm of active ingredient; gherkin plants, preventive spray; evaluated 15 days after inoculation; read-out: efficacy. The procedure:
Example D: In Vivo Preventive Test on Sphaerotheca fuliginea (Powdery Mildew on Cucurbits) [table] The active ingredients are made soluble and homogenized in a mixture of Dimethyl sulfoxide/Acetone//Tween® 80 and then diluted in water to the desired concentration. The young plants of gherkin are treated by spraying the active ingredient prepared as described above. Control plants are treated only with an aqueous solution of Acetone/Dimethyl sulfoxide/Tween® 80. After 24 hours, the plants are contaminated by spraying the leaves with an aqueous suspension of Sphaerotheca fuliginea spores. The contaminated gherkin plants are incubated for 72 hours at 18° C. and at 100% relative humidity and then for 12 days at 20° C. and at 70-80% relative humidity. The test is evaluated 15 days after the inoculation. 0% means an efficacy which corresponds to that of the control plants while an efficacy of 100% means that no disease is observed.

By chromatographic logP is commonly meant lipophilicity estimated from chromatographic retention. High values mean a more lipophilic compound, low ones a more hydrophilic compound.

Marks after values point to notes of the source that are not given here.

`OC(Cn1cncn1)c1cnc(Oc2ccc(Cl)cc2)cc1C(F)(F)F` (centres unmarked) [I.04, 1-[6-(4-chlorophenoxy)-4-(trifluoromethyl)-3-pyridyl]-2-(1,2,4-triazol-1-yl)ethanol]: the pest or weed control at 500 ppm in data set [1], in data set [2] and in data set [4] was 90 to 100% in each case. In data set [3] (method [a]: LC-UV, acidic range, 0.1% formic acid in water and acetonitrile as eluent), this compound yielded a chromatographic logP of 2.68.

Turning to `O=C(CCl)c1ccc(Oc2ccc(Cl)cc2)nc1F` [VI.20], in data set [3], the LogP was 3.69^[a]. On the same count and under the same terms, then `O=C(CCl)c1cnc(Oc2ccc(OC(F)(F)F)cc2)cc1C(F)(F)F` [VI.21], with 4.37^[a]; and `O=C(CCl)c1cnc(Oc2ccc(C(F)(F)F)cc2)cc1C(F)(F)F` [VI.22], with 4.21^[a]; and `O=C(CCl)c1cnc(Oc2ccc(Br)cc2)cc1C(F)(F)F` [VI.23], with 4.16^[a].

As for `O=C(CBr)c1cnc(Oc2ccc(Cl)cc2F)cc1C(F)(F)F` [VI.24], the LogP in data set [3] is 4.34^[a]. Same read-out and setting: the value for `O=C(CCl)c1cnc(Oc2ccc(Cl)cc2F)cc1C(F)(F)F` [VI.25] was 4.15^[a]; that for `O=C(CCl)c1cnc(Oc2ccc(C(F)F)cc2)cc1C(F)(F)F` [VI.26] was 3.76^[a]; that for `O=C(CBr)c1cnc(Oc2ccc(C(F)F)cc2)cc1C(F)(F)F` [VI.27] was 3.99^[a]. Regarding `O=C(CCl)c1ccc(Oc2ccc(C(F)(F)F)cc2)nc1C(F)(F)F` [VI.28], the LogP in data set [3] is 4.19^[a].

As for `O=C(CCl)c1ccc(Oc2ccc(S(F)(F)(F)(F)F)cc2)nc1C(F)(F)F` [VI.29], the LogP in data set [3] was 4.29^[a]. The same measure, in the same setting: then `O=C(CCl)c1ccc(Oc2ccc(S(F)(F)(F)(F)F)cc2)nc1Cl` [VI.30], with 4.21^[a]; and `O=C(CCl)c1ccc(Oc2c(F)cc(Cl)cc2F)nc1C(F)(F)F` [VI.31], with 4.26^[a]; and `O=C(CBr)c1ccc(Oc2c(F)cc(Cl)cc2F)nc1C(F)(F)F` [VI.32], with 4.18^[a]. Still for that read-out and setting: the value for `O=C(CCl)c1ccc(Oc2ccc(OC(F)(F)F)cc2)nc1C(F)(F)F` [VI.33] was 4.07^[a]. On the same count and under the same terms, then `O=C(CBr)c1ccc(Oc2ccc(Cl)cc2)nc1C(F)(F)F` [VI.34], with 4.19^[a]; and `O=C(CCl)c1ccc(Oc2ccc(Cl)cc2F)nc1C(F)(F)F` [VI.35], with 4.11^[a]; and `O=C(CCl)c1ccc(Oc2ccc(C(F)F)cc2)nc1C(F)(F)F` [VI.36], with 3.50^[a]. As to `O=C(Cn1cncn1)c1cnc(Oc2ccc(Cl)cc2)cc1C(F)(F)F` [VII.02, 1-[6-(4-chlorophenoxy)-4-(trifluoromethyl)-3-pyridyl]-2-(1,2,4-triazol-1-yl)ethanone], the pest or weed control at 500 ppm in data set [1] was 90 to 100%; in data set [2], 80 to 89%; in data set [4], 90 to 100%. The same compound gave a chromatographic logP in data set [3] (method [a], compounds of formula (VII), Table 4) of 2.92. For `O=C(Cn1cncn1)c1ccc(Oc2ccc(Cl)c(Cl)c2)nc1Cl` [VII.03], in data set [3], the LogP is 3.06^[a]. On the same count and under the same terms, the value for `O=C(Cn1cncn1)c1ccc(Oc2ccc(OC(F)(F)F)c(Cl)c2)nc1Cl` [VII.04] was 3.33^[a]; that for `O=C(Cn1cncn1)c1cnc(Oc2ccccc2)cc1Cl` [VII.05] was 2.20^[a]; that for `O=C(Cn1cncn1)c1ccc(Oc2ccccc2)nc1Cl` [VII.06] was 2.21^[a]. Same read-out and setting: then `O=C(Cn1cncn1)c1ncc(Oc2ccccc2)cc1Cl` [VII.07], with 2.45^[a]; and `O=C(Cn1cncn1)c1ccc(Oc2ccc(OC(F)(F)F)cc2)nc1Cl` [VII.08], with 2.95^[a]. On the same count and under the same terms, the value for `O=C(Cn1cncn1)c1ccc(Oc2ccc(Cl)cc2)nc1Cl` [VII.09] was 2.66^[a].

For the compound `Cc1cc(Cl)ccc1Oc1ccc(C(=O)Cn2cncn2)c(Cl)n1` [VII.10], the LogP in data set [3] is 2.94^[a]. Still for that read-out and setting: then `Cc1ccc(Oc2ccc(C(=O)Cn3cncn3)c(Cl)n2)cc1Cl` [VII.11], with 3.02^[a]; and `O=C(Cn1cncn1)c1ccc(Oc2ccc(F)cc2)nc1Cl` [VII.12], with 2.30^[a]. On to `O=C(Cn1cncn1)c1ccc(Oc2ccc(F)cc2F)nc1Cl` [VII.13], for which the LogP in data set [3] was 2.41^[a]. Still for that read-out and setting: then `O=C(Cn1cncn1)c1ccc(Oc2ccccc2F)nc1Cl` [VII.14], with 2.28^[a]; and `O=C(Cn1cncn1)c1ccc(Oc2cc(F)c(F)c(F)c2)nc1Cl` [VII.15], with 2.66^[a].

Take `O=C(Cn1cncn1)c1ccc(Oc2ccc(Cl)cc2Cl)nc1Cl` [VII.16]: the LogP in data set [3] was 3.02^[a]. Still for that read-out and setting: then `CC(=O)c1ccc(Oc2ccc(C(=O)Cn3cncn3)c(Cl)n2)cc1` [VII.17], with 1.96^[a]; and `O=C(Cn1cncn1)c1ccc(Oc2ccc(Cl)cc2)nc1OC(F)(F)F` [VII.18], with 3.23^[a]. Same read-out and setting: then `COc1ccc(Oc2ccc(C(=O)Cn3cncn3)c(Cl)n2)c(Cl)c1` [VII.19], with 2.58^[a]; and `O=C(Cn1cncn1)c1ccc(Oc2ccc(S(F)(F)(F)(F)F)cc2)nc1Cl` [VII.20], with 3.11^[a]; and `O=C(Cn1cncn1)c1cnc(Oc2ccc(S(F)(F)(F)(F)F)cc2)cc1C(F)(F)F` [VII.21], with 3.35^[a]. The same measure, in the same setting: the value for `O=C(Cn1cncn1)c1ccc(Oc2ccc(C(F)F)cc2)nc1Cl` [VII.22] was 2.39^[a]; that for `O=C(Cn1cncn1)c1ncc(Oc2ccc(Cl)cc2)nc1Cl` [VII.23] was 2.54^[a]. As for `O=C(Cn1cncn1)c1ccc(Oc2ccc(Br)cc2)nc1C(F)(F)F` [VII.24], the LogP in data set [3] was 2.99^[a]. As to `O=C(Cn1cncn1)c1ccc(Oc2ccc(Cl)cc2)nc1F` [VII.25], in data set [3], the LogP is 2.50^[a]. As to `O=C(Cn1cncn1)c1cnc(Oc2ccc(OC(F)(F)F)cc2)cc1C(F)(F)F` [VII.26], the LogP in data set [3] was 3.27^[a]. On the same count and under the same terms, the value for `O=C(Cn1cncn1)c1cnc(Oc2ccc(Br)cc2)cc1C(F)(F)F` [VII.27] was 3.02^[a].

Consider `O=C(Cn1cncn1)c1cnc(Oc2ccc(C(F)(F)F)cc2)cc1C(F)(F)F` [VII.28], for which, in data set [3], the LogP was 3.17^[a].

With `O=C(Cn1cncn1)c1cnc(Oc2ccc(C(F)F)cc2)cc1C(F)(F)F` [VII.29], in data set [3], the LogP was 2.80^[a]. On the same count and under the same terms, then `O=C(Cn1cncn1)c1cnc(Oc2ccc(Cl)cc2F)cc1C(F)(F)F` [VII.30], with 3.06^[a]. Same read-out and setting: then `O=C(Cn1cncn1)c1ccc(Oc2ccc(S(F)(F)(F)(F)F)cc2)nc1C(F)(F)F` [VII.31], with 3.23^[a]; and `O=C(Cn1cncn1)c1ccc(Oc2ccc(C(F)(F)F)cc2)nc1C(F)(F)F` [VII.32], with 3.04^[a]; and `O=C(Cn1cncn1)c1ccc(Oc2c(F)cc(Cl)cc2F)nc1C(F)(F)F` [VII.33], with 2.96^[a]. The same measure, in the same setting: then `CC(C)c1ccc(Oc2ccc(C(=O)Cn3cncn3)c(C(F)(F)F)n2)cc1` [VII.34], with 3.44^[a]; and `O=C(Cn1cncn1)c1ccc(Oc2ccc(Br)cc2)nc1C(F)F` [VII.35], with 2.68^[a]. With `O=C(Cn1cncn1)c1cnc(Oc2ccc(Cl)cc2)cc1C(F)F` [VII.36], in data set [3], the LogP is 2.51^[a]. With `O=C(Cn1cncn1)c1ccc(Oc2ccc(Cl)cc2F)nc1C(F)(F)F` [VII.37], the LogP in data set [3] was 2.74^[a]. Take `O=C(Cn1cncn1)c1cnc(Oc2ccc(Cl)cc2)cc1Cl` [VII.38]: the LogP in data set [3] was 2.60^[a]. Regarding `O=C(Cn1cncn1)c1ccc(Oc2ccc(OC(F)(F)F)cc2)nc1C(F)(F)F` [VII.39], the LogP in data set [3] was 2.95^[a].

Turning to `O=C(Cn1cncn1)c1cnc(Oc2ccc(C(F)(F)F)cc2)cc1Cl` [VII.40], the LogP in data set [3] was 2.92^[a].

`O=C(Cn1cncn1)c1cnc(Oc2ccc(Br)cc2)cc1C(F)F` [VII.41]: in data set [3], the LogP is 2.61^[a]. On the same count and under the same terms, the value for `O=C(Cn1cncn1)c1ccc(Oc2ccc(C(F)F)cc2)nc1C(F)(F)F` [VII.42] was 2.41^[a].
